Source: PMC5011342, “A high throughput drug screening assay to identify compounds that promote oligodendrocyte differentiation using acutely dissociated and purified oligodendrocyte precursor cells” (BMC Research Notes, 2016)
Like-named read-outs stand apart in the source and are kept apart here.

What was measured:
[1] = tested on: acutely dissociated and purified rat OPCs; test: Acute OL differentiation assay (MBP expression/cell, immunofluorescent image quantification); type: cell-based
Procedure, shortened: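 This acute differentiation assay used purified rat OPCs from postnatal day 6–7 pups, seeded into PDL/laminin-coated 96-well plates in differentiation medium lacking PDGF and FGF. Compounds were applied in quadruplicate after a 1–2 h preincubation at 37 °C, 10 % CO2, with 0.1 % DMSO negative and 40 ng/ml T3 positive controls in eight wells. After fixation on DIV4, anti-MBP immunofluorescence images yielded MBP expression/cell.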

[2] = tested on: expanded OPCs; test: cells; settings: for 0.1 µM (% DMSO) / 1 µM (% DMSO) / 10 µM (% DMSO): alamarBlue viability of expanded OPCs, relative to DMSO control; for 0.1 µM (% DMSO): compound at 0.1 µM; for 1 µM (% DMSO): compound at 1 µM; for 10 µM (% DMSO): compound at 10 µM; for viability at 0.1 µM / viability at 1 µM / viability at 10 µM: Rattus norvegicus, 72 h
Procedure, shortened: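 Toxicity screen: compounds added at 0.1, 1 and 10 µM to PDGF-AA-expanded OPCs in 96-well plates, 3-day incubation at 37 °C, 10% CO2, then alamarBlue 1:10 for 4 h with fluorescence readout. Results set screening doses of 10/2, 2/0.4 or 0.4/0.08 µM.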

[3] = Rattus norvegicus, test compound at 2 uM, NCC library screen, sheet "All OLga data", relative to quetiapine, read-out: 2 uM (% Quet)
[4] = Rattus norvegicus, test compound at 10 uM, NCC library screen, sheet "All OLga data", relative to quetiapine, read-out: 10 uM (% Quet)
[5] = read-out: 0.1 µM (% DMSO), alamarBlue viability, NCC library compound at 0.1 µM, sheet "All Tox data"
[6] = read-out: 1 µM (% DMSO), alamarBlue viability, NCC library compound at 1 µM, sheet "All Tox data"
[7] = read-out: 10 µM (% DMSO), alamarBlue viability, NCC library compound at 10 µM, sheet "All Tox data"
[8] = Rattus norvegicus, test compound at 0.4 uM, NCC library screen, sheet "All OLga data", relative to quetiapine, read-out: 0.4 uM (% Quet)
[9] = Rattus norvegicus, 2 uM test compound, relative to quetiapine, sheet "All OLga data", read-out: OL differentiation, 2 uM (% Quet)
[10] = Rattus norvegicus, 10 uM test compound, relative to quetiapine, sheet "All OLga data", read-out: OL differentiation, 10 uM (% Quet)
[11] = read-out: 0.1 µM (% DMSO), alamarBlue viability of expanded OPCs, compound at 0.1 µM, sheet All Tox data
[12] = read-out: 1 µM (% DMSO), alamarBlue viability of expanded OPCs, compound at 1 µM, sheet All Tox data
[13] = read-out: 10 µM (% DMSO), alamarBlue viability of expanded OPCs, compound at 10 µM, sheet All Tox data
[14] = Rattus norvegicus, 0.08 uM test compound, relative to quetiapine, sheet "All OLga data", read-out: OL differentiation, 0.08 uM (% Quet)
[15] = Rattus norvegicus, 0.4 uM test compound, relative to quetiapine, sheet "All OLga data", read-out: OL differentiation, 0.4 uM (% Quet)
[16] = Rattus norvegicus, test compound at 2 uM, MBP expression relative to quetiapine, NCC library screen, sheet "All OLga data", read-out: 2 uM (% Quet)
[17] = Rattus norvegicus, test compound at 10 uM, MBP expression relative to quetiapine, NCC library screen, sheet "All OLga data", read-out: 10 uM (% Quet)

Row | Compound | activation at 2 µM [1, 3] [%] | activation at 10 µM [1, 4] [%] | viability at 0.1 µM [2, 5] [%] | viability at 1 µM [2, 6] [%] | viability at 10 µM [2, 7] [%] | activation at 2 µM [1, 9] [%] | viability at 0.1 µM [2, 11] [%] | viability at 1 µM [2, 12] [%] | viability at 10 µM [2, 13] [%] | further results
1 | O=C(O)c1cccnc1 [Niacin] | -3.6 | 3.6 | – | – | – | – | – | – | – | 0.1 µM (% DMSO) [2]: 92.4 % DMSO; 1 µM (% DMSO) [2]: 94.0 % DMSO; 10 µM (% DMSO) [2]: 85.5 % DMSO
2 | NC(=O)c1cccnc1 [Niacinamide] | -37.7 | -38.5 | 90.4 | 91 | 80.9 | – | – | – | – | –
3 | O=C(CCNNC(=O)c1ccncc1)NCc1ccccc1 [Nialamide] | 2.8 | 14.8 | 95 | 96.2 | 91.7 | – | – | – | – | –
4 | COC(=O)C1=C(C)NC(C)=C(C(=O)OCCN(C)Cc2ccccc2)C1c1cccc([N+](=O)[O-])c1 (stereo not shown) [Nicardipine] | – | – | 85.3 | 51.8 | 14.3 | – | – | – | – | activation at 0.08 µM ([1]; Rattus norvegicus, test compound at 0.08 uM, NCC library screen, sheet "All OLga data", relative to quetiapine, read-out: 0.08 uM (% Quet)): 8.8%; activation at 0.4 µM [1, 8]: -29%
5 | O=C(NCCO[N+](=O)[O-])c1cccnc1 [Nicorandil] | 14.7 | 3.2 | 92.6 | 85.6 | 82.2 | – | – | – | – | –
6 | CN1CCC[C@H]1c1cccnc1 [Nicotine] | – | – | – | – | – | – | – | – | – | activation at 2 µM ([1]; Rattus norvegicus, read-out: 2 uM (% Quet)): 12.3%; activation at 10 µM ([1]; Rattus norvegicus, read-out: 10 uM (% Quet)): 10.9%; viability at 0.1 µM ([2]; read-out: 0.1 µM (% DMSO)): 92.9%; viability at 1 µM ([2]; read-out: 1 µM (% DMSO)): 89.4%; viability at 10 µM ([2]; read-out: 10 µM (% DMSO)): 93.5%
7 | OCc1cccnc1 [Nicotinyl Alcohol] | -9.3 | -3.3 | 88.5 | 90.1 | 89.3 | – | – | – | – | –
8 | Cn1c(NCCN(CCO)CCCc2ccc([N+](=O)[O-])cc2)cc(=O)n(C)c1=O [Nifekalant] | – | – | – | – | – | -9.4 | 94.4 | 97.6 | 109 | activation at 10 µM [1, 10]: 6%
9 | CN1C(=O)CN=C(c2ccccc2)c2cc([N+](=O)[O-])ccc21 [Nimetazepam] | – | – | 89.5 | 82.8 | 81.8 | 6.5 | – | – | – | activation at 10 µM [1, 10]: -0.15%
10 | COCCOC(=O)C1=C(C)NC(C)=C(C(=O)OC(C)C)C1c1cccc([N+](=O)[O-])c1 (stereo not shown) [Nimodipine] | 4.8 | – | 88 | 87.4 | 54.5 | – | – | – | – | activation at 0.4 µM [1, 8]: -13.1%
11 | COC(=O)C1=C(C)NC(C)=C(C(=O)OCC(C)C)C1c1ccccc1[N+](=O)[O-] (stereo not shown) [Nisoldipine] | – | – | – | – | – | – | 94.2 | 11.9 | 11.4 | activation at 0.08 µM [1, 14]: -23.7%; activation at 0.4 µM [1, 15]: -133%
12 | CN(C)CCCC1(c2ccc(F)cc2)OCc2cc(C#N)ccc21 (stereo not shown) [Nitalapram, reference compound] | 37.5 | 38.6 | 95.9 | 94.9 | 91.9 | 33 | 85.9 | 101 | 110 | activation at 10 µM [1, 10]: 46.5%; activation at 2 µM [1, 16]: 30.4%; activation at 10 µM [1, 17]: 6.5%; EC50 ([1]; Rattus norvegicus, average EC50 for induction of OL differentiation from independent biological replicates, eight concentrations): 1.1 µM; hit in OL differentiation assay, MRF-TMC ([1]; ● = confirmed hit in this paper's assay): ●; 0.1 µM (% DMSO) [2]: 107.3 % DMSO; 1 µM (% DMSO) [2]: 108.9 % DMSO; 10 µM (% DMSO) [2]: 99.4 % DMSO
13 | CC(=O)Oc1ccccc1C(=O)Nc1ncc([N+](=O)[O-])s1 [Nitazoxanide] | – | – | 91 | 96.5 | 55.7 | -75.9 | – | – | – | –
14 | O=C1CN=C(c2ccccc2)c2cc([N+](=O)[O-])ccc2N1 [Nitrazepam] | – | – | – | – | – | 7.3 | 84.2 | 88.9 | 95 | activation at 10 µM [1, 10]: -25.3%
15 | CCOC(=O)C1=C(C)NC(C)=C(C(=O)OC)C1c1cccc([N+](=O)[O-])c1 (stereo not shown) [Nitrendipine] | – | – | – | – | – | -27 | 104 | 90.7 | 35.6 | activation at 0.4 µM [1, 15]: -4.7%
16 | O=C1CN(/N=C/c2ccc([N+](=O)[O-])o2)C(=O)N1 [Nitrofurantoin] | -26.2 | -72.2 | – | – | – | – | – | – | – | 0.1 µM (% DMSO) [2]: 101.2 % DMSO; 1 µM (% DMSO) [2]: 101.9 % DMSO; 10 µM (% DMSO) [2]: 87.2 % DMSO
17 | CNC(=C[N+](=O)[O-])NCCSCc1csc(CN(C)C)n1 [Nizatidine] | – | – | – | – | – | -1.7 | 92.6 | 89 | 96.6 | activation at 10 µM [1, 10]: 13%
18 | COc1ccc(-c2cc(=O)c3c(OC)c(OC)c(OC)c(OC)c3o2)cc1OC [Nobiletin] | – | – | – | – | – | – | 76.3 | 28.1 | 28.1 | activation at 0.08 µM [1, 14]: 8.4%; activation at 0.4 µM [1, 15]: -28.4%
19 | NC[C@H](O)c1ccc(O)c(O)c1 [Norepinephrine] | – | – | – | – | – | – | – | – | – | activation at 2 µM [1, 16]: -1.9%; activation at 10 µM [1, 17]: -78%; 0.1 µM (% DMSO) [2]: 99.4 % DMSO; 1 µM (% DMSO) [2]: 99.0 % DMSO; 10 µM (% DMSO) [2]: 68.5 % DMSO
20 | C#C[C@]1(O)CC[C@H]2[C@@H]3CCC4=CC(=O)CC[C@@H]4[C@H]3CC[C@@]21C [Norethindrone] | -0.9 | -32 | 95 | 87.2 | 80.6 | – | – | – | – | –
21 | C#C[C@]1(OC(C)=O)CC[C@H]2[C@@H]3CCC4=CC(=O)CC[C@@H]4[C@H]3CC[C@@]21C [Norethisterone acetate] | -15 | -14.3 | 103 | 93.1 | 101 | – | – | – | – | –
22 | CCn1cc(C(=O)O)c(=O)c2cc(F)c(N3CCNCC3)cc21 [Norfloxacin] | -20.2 | -13 | – | – | – | – | – | – | – | 0.1 µM (% DMSO) [2]: 111.0 % DMSO; 1 µM (% DMSO) [2]: 105.5 % DMSO; 10 µM (% DMSO) [2]: 99.0 % DMSO
